Laboratory results published in PubChem BioAssay (NCI).
Several values for one entry are separate records, joined by “and”; a condition that tells them apart may be missing. Identical values can stand only once.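 How tested: cells in 96-well plates exposed to compound for 48 hours at five concentrations. GI50 is the concentration that inhibits growth by half. TGI marks complete inhibition of growth.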

Columns and labels:
Assay in all cases: inhibition of tumour cell growth, NCI panel, 48 h
ACHN renal = system: ACHN renal
COLO 205 colon = system: COLO 205 colon
DU-145 prostate = system: DU-145 prostate
HCT-116 colon = system: HCT-116 colon
HL-60(TB) leukemia = system: HL-60(TB) leukemia
HT29 colon = system: HT29 colon
MALME-3M melanoma = system: MALME-3M melanoma
MOLT-4 leukemia = system: MOLT-4 leukemia
OVCAR-8 ovarian = system: OVCAR-8 ovarian
SK-MEL-28 melanoma = system: SK-MEL-28 melanoma

Row | SMILES | GI50 (ACHN renal) [µM] | TGI (ACHN renal) | GI50 (COLO 205 colon) [µM] | TGI (COLO 205 colon) | GI50 (DU-145 prostate) | TGI (DU-145 prostate) | GI50 (HCT-116 colon) [µM] | TGI (HCT-116 colon) | GI50 (HL-60(TB) leukemia) | TGI (HL-60(TB) leukemia) | GI50 (HT29 colon) [µM] | TGI (HT29 colon) | GI50 (MALME-3M melanoma) [µM] | TGI (MALME-3M melanoma) | GI50 (MOLT-4 leukemia) [µM] | TGI (MOLT-4 leukemia) | GI50 (OVCAR-8 ovarian) | TGI (OVCAR-8 ovarian) | TGI (SK-MEL-28 melanoma) [µM] | GI50 (SK-MEL-28 melanoma) [µM]
1 | NCCCn1c2c(c3ccc([N+](=O)[O-])cc3c1=O)C(=O)c1cc(I)ccc1-2 | < 0.0179 | 1.29 µM | 1.02 | 2.44 µM | < 0.01 µM | 0.118 µM | < 0.01 | 0.201 µM | < 0.0176 µM | 0.0733 µM | 0.0951 | 0.352 µM | 0.228 | 1.86 µM | < 0.01 | 0.251 µM | 0.0268 µM | 0.234 µM | – | –
2 | COc1cc2c3c(n(C)c(=O)c2cc1OC)-c1cc2c(cc1C3=O)OCO2 | – | > 60.5 µM | – | > 100 µM | – | > 100 µM | – | > 100 µM | – | > 100 µM | – | > 100 µM | – | > 100 µM | – | 54.7 µM | – | > 100 µM | > 100 | –
3 | O=[N+]([O-])c1ccccc1N=Nc1c(O)[nH]c2c(Cl)cc(Cl)cc12 | – | 46.8 µM | – | > 100 µM | – | > 100 µM | – | > 100 µM | – | > 93 µM | – | > 100 µM | – | > 95.7 µM | – | > 87.8 µM | – | > 100 µM | > 100 | –
4 | CNc1cc2oc(=O)cc(C)c2cc1C | – | > 100 µM | – | > 100 µM | – | > 100 µM | – | > 100 µM | – | > 100 µM | – | > 100 µM | – | > 100 µM | – | > 100 µM | – | > 100 µM | > 100 | –
5 | Cc1cccc(NC2=C(Cl)C(=O)c3nc(C)ccc3C2=O)c1 | 1.24 | 2.53 µM | 1.86 | 4.1 µM | 1.27 µM | 2.55 µM | 0.44 | 1.86 µM | 2.14 µM | 5.8 µM | 2.94 | 11.9 µM | 1.65 | 3.07 µM | 2.2 | > 100 µM | – | – | 3.14 | 1.71
6 | Nc1nc(Cl)nc2c1ncn2C1CC(O)C(CO)O1 (stereo not given) | 0.562 | > 100 µM | – | > 100 µM | 1.81 µM | > 100 µM | – | > 100 µM | – | 1.02 µM | – | > 100 µM | – | > 100 µM | – | > 79.3 µM | – | > 100 µM | > 100 | –
7 | O=c1[nH]c(-c2cccc(F)c2)cc2cc(F)ccc12 | 0.771 | > 100 µM | 0.338 | > 100 µM | 0.507 µM | > 100 µM | 0.195 | > 100 µM | 0.199 µM | 0.684 µM | 0.261 | > 100 µM | > 100 | > 100 µM | 0.568 | > 100 µM | 0.951 µM | > 100 µM | > 100 | 7.5
8 | COc1cc(/C=C2\CCCCC3=C2N=C2SC(C)=CN2C3c2cc(OC)c(OC)c(OC)c2)cc(OC)c1OC (stereo not given) | 11.9 | > 100 µM | 41.6 | > 100 µM | > 100 µM | > 100 µM | 7.32 | > 100 µM | 19.5 µM | > 100 µM | > 100 | > 100 µM | 15.2 | > 100 µM | 0.542 | 78 µM | 11.9 µM | > 100 µM | > 100 | 89.1
9 | O=C(Nc1ncc(Cc2cccc(C(F)(F)F)c2)s1)c1ccc2c(c1)OCCO2 | 0.58 | > 100 µM | 0.282 | 1.54 µM | 0.35 µM | 14.8 µM | 0.32 | > 100 µM | 0.34 µM | > 100 µM | 0.498 | > 35.2 µM | 0.569 | > 60.9 µM | 0.67 | > 100 µM | 0.485 µM | > 100 µM | > 100 | 1.54
10 | C=C(C)C(C1C=C(CCC(C=O)=C(C)C)C(=O)O1)C1(OC)C=C(C)C(=O)O1 (stereo not given) | > 100 | > 100 µM | 63.6 | > 100 µM | > 100 µM | > 100 µM | 49.5 | > 100 µM | > 100 µM | > 100 µM | 57.9 | > 100 µM | > 100 | > 100 µM | 34.8 | > 100 µM | > 100 µM | > 100 µM | > 100 | > 100
11 | CCCCNCCCNCCCNC(=O)c1csc(-c2csc(CCNC(=O)C(NC(=O)C(C)C(O)C(C)NC(=O)C(NC(=O)c3nc(C(CC(N)=O)NCC(N)C(N)=O)nc(N)c3C)C(OC3OC(CO)C(O)C(O)C3OC3OC(CO)C(O)C(OC(N)=O)C3O)c3cnc[nH]3)C(C)O)n2)n1 (stereo not given) | 0.0491 | – | 26.6 | 50 µM and > 89.1 µM | – | 50 µM | 0.427 | 50 µM and 14.2 µM | 3.4 µM | 50 µM and > 100 µM | 1.73 | 50 µM and > 100 µM | 0.697 | 16.9 µM | 1.22 | 50 µM and > 27.1 µM | 0.908 µM | 12.1 µM and 40.4 µM | > 75.7 | > 50
12 | NC(=S)N/N=C/c1ncccc1O | 0.202 | 8.54 µM and 1.38 µM | 3.48 | > 431 µM | 1.46 µM and 0.77 µM | 17.1 µM and > 114 µM | 2.86 | > 391 µM | 1.27 µM and 0.477 µM | 3.6 µM and 3.59 µM | 2.72 | > 1000 µM | 4.47 | > 64.8 µM and 156 µM | 1.76 | 33.2 µM and 42.7 µM | 2.58 µM and 0.813 µM | > 72.2 µM and 135 µM | > 1000 | 5.86
13 | COc1ccc(CNc2c3ccccc3nc3ccccc23)cc1F | 3.03 | 11.3 µM | 2.01 | 5.64 µM | 3.65 µM | 12.4 µM | 2.92 | 12.3 µM | 3.37 µM | 10.4 µM | 2.58 | 10.3 µM | 2.71 | 7.73 µM | 3.28 | 14.6 µM | 3.52 µM | 19.4 µM | 13.9 | 3.84
14 | COc1ccc(-c2c(C#N)c(N3CCOCC3)nc3[nH]c(=S)[nH]c(=S)c23)cc1OC | 35.8 | > 100 µM | 66.8 | > 100 µM | 58.7 µM | > 100 µM | 27.8 | > 100 µM | 36.2 µM | > 100 µM | – | – | – | – | 39.6 | > 100 µM | 34.5 µM | > 100 µM | > 100 | > 100
15 | COc1c(C)c(OCC=C(C)C)cc(CO)c1CO | – | > 100 µM | – | > 100 µM | – | > 100 µM | – | > 100 µM | – | > 100 µM | – | > 100 µM | – | – | – | > 100 µM | – | > 100 µM | – | –
